According to patent US11998008B2, “Pesticides and methods of controlling pests” (The State of Israel, Ministry of Agriculture & Rural …, priority 2017, dated 2024):

How the values were obtained:
B. cinerea = assay: Fungicidal activity assay on PDA in sealed Petri dish (growth inhibition and mortality); assay type: cell-based, Botrytis cinerea; settings: Botrytis cinerea, NA + number = still viable in the highest concentration tested (given as >), read-out: M - Mortality, minimal concentration that killed the fungus
Protocol: In exemplary procedures, the fungicidial activity of the compounds listed in Table 2 were examined by activity assays as follow: Petri dishes, 90 mm in diameter, with air volume of 80 mL, contained 10-12 mL of growth medium comprising potato dextrose agar (PDA) (Acumedia, Lansing, Michigan, USA) amended with tetracycline at 12 μg/mL. Each compound was placed on a disconnected cover from an Eppendorf tube that was located in the middle of the Petri dish and a hyphae-containing plug of each test fungus was added to the culture plate. In exemplary procedures, the tested compounds trans-2-heptenal, trans-2-octenal were tested in comparison with octanal, trans-2-octen-1-ol, methyl trans-2-octenoate, trans-3-octen-2-one and 3-pentenenitrile. In addition, cyclic ketones as 2-cyclopenten-1-one, 2-cyclohexen-1-one and α-tetralone were also examined. Then, the culture plate was sealed with parafilm and incubated at room-temperature for 2 days, after which the growth of the test fungi in those dishes was compared with those in the test compound-free control dishes. At the end of the assay, the viability of each test fungus was evaluated by transferring inoculum plugs to fresh PDA plates and observing the growth that developed within the next 2 days. The test fungi used in this study included but were not limited to Alternaria alternata, Botrytis cinerea, Sclerotinia rolfsii, Penicillium digitatum, Fusarium oxysporum f. sp. radicis-cucumerinum and Rhizoctonia solani.

sclerotia of S. rolfsii = assay: Open field experiment in sandy soil; assay type: in vivo, Sclerotium rolfsii; settings: emulsion, 54 ppm active compound, 6 days
Protocol: In this experiment, an emulsions of trans-2-octenal (25% active compound) such as those described in Example 9 were used. The soil was inoculated with chlamydospores of Forl and sclerotia of S. rolfsii. Five gram of soil, highly inoculated with chlamydospores were wrapped in nylon tights and buried in the field at depths of 10, 30, and 50 cm. Tea bags containing 50 S. rolfsii sclerotia were prepared as described above and buried similarly. After 6 days, trans-2-octenal emulsion, at concentration of 54 ppm (active compound) was applied using the irrigation system. The same conditions were applied to a control plot except that the plot was irrigated with tap water without the compound. The plots were left open during the time of the experiment. After 6 days, the pathogens were removed from the soil and their viability was examined using PDA+tet culture plates. […] As shown in these figures, elimination of both phytopathogenic fungi occurred at the lowest depth of 10 cm.

tomato strain Ikram = settings: in vivo, 11 days
Protocol: An experiment in a larger scale was performed in loam soil in which the seedling were planted directly in the treated plot. The soil was treated with 0, 25, 50, 100, 200, 400, 800, and 1,600 ppm of emulsion of trans-2-octenal. The compound was applied using the irrigation system. A day later, tomato seedling strains Ikram and Abigail and lettuce seedling strain Raviv (10 seedlings each) were planted into the treated soil of each concentration. Eleven days later, the number of viable seedlings was counted.

[1] = system: Meloidogyne javanica second stage juveniles (J2s); assay: Nematocidal activity: viability of J2 nematodes after 2 days exposure to the compound in a sealed box; assay type: in vivo; settings: comparison within the series
From the text: In exemplary procedures, the sedentary root-knot nematode from the genus Meloidogyne javanica second stage juveniles (J2s) was propagated on greenhouse-grown nematode-susceptible tomato Lycopersicon esculentum cv. ‘Avigail 870’ (Hazera, Shikmim, Israel), and nematode eggs were bulk-extracted from the roots with 0.05% (v/v) sodium hypochlorite (NaOCl) followed by sucrose flotation and successive sievings through nylon filters of 300, 120, 60, and 30 μm mesh sizes (AD Sinun Technologies, Petach Tikvah, Israel). For hatching J2, extracted eggs were placed on 30-μm sieves (AD Sinun Technologies) in 0.01 M MES (2-(N-morpholino) ethanesulfonic acid hydrate) pH 6.5 buffer under aseptic conditions in darkness for 5 days, and hatching J2s were collected for further experiments.
Seven vials, each containing 300 J2 nematodes with 0.5 mL of 0.01 M 2-(N-morpholino)ethanesulfonic acid (MES) buffer, were exposed to cyclic ketone compounds in order to examine their nematocidal activity and reduction in viability. In addition, a humid environment in a sealed 1 L box was maintained by addition 5 ml of distilled H2O to a 50-mm Petri plate. The box was sealed after compound addition into each 50-mm Petri plate together with 5-250 mg of perlite particles and incubated for 2 days in the dark at 25±1° C. C5 and C6 saturated and α,β-unsaturated cyclic ketones were tested for their nematocidal activity. The J2 nematodes viability was examined following exposure to the cyclic ketone compounds, by a straightforward small-scale nematode extraction method, based on the traditional Baermann funnel method. Briefly, all nematode suspensions were loaded onto 30-μm (AD Sinun Technologies) filters (1.0-1.5 cm height, 1.1-2.0 cm^3 internal area), and the nematodes were washed twice with 300 μL of 0.01 M MES buffer in order to remove any residues. Then, filters holding nematodes were placed into 15 mL Falcon centrifuge tubes, each containing 900 μL of 0.01 M of MES buffer. These filters allow active passage of only living J2s while paralyzed or dead nematodes remain on top of the filter. The whole apparatus including the filter holding the nematodes and the Falcon tubes were placed in the dark for 3 h at 25±1° C. Then, the filters were removed and the viable nematodes, which were able to actively cross the filter toward the 0.01 M of MES buffer, were collected from the Falcon tube and counted using a Nematode Counting Slide (Chalex LLC, Portland, OR, USA) and a SV11 stereomicroscope (Zeiss, Jena, Germany).
Data were analyzed by the JMP 12 software package (SAS Inc., Cary, NC, USA). Mean numbers of viable J2s under various conditions were subjected to one-way analysis of variance (ANOVA), followed by the Tukey-Kramer multiple comparison test, with significance set at P<0.05.

[2] = system: Sclerotium rolfsii sclerotia; assay: Effect on Sclerotium rolfsii sclerotia buried in buckets; assay type: in vivo
Protocol: The activity of trans-2-octenal was examined against phytopathogenic fungi and weeds. The experiment was performed in large buckets (110 L), which bottoms were removed, and therefore the loam in the bucket was continuous with the ground. The soil was inoculated one day prior the application of the compound. Soil inoculation was performed as follows: spores of Fusarium oxysporum […]-cucumerinum (FORC) were collected from culture plates and 25 mL of spore suspension at concentration of 9×10^5 was mixed with 10 L of tap water and then poured on the soil of each bucket. […] Half of the buckets were sealed with nylon while the other half remained open. Five days later, soil samples from three different depths (10, 20, and 30 cm) were taken from each bucket for fungal isolation and determination of fungal survival. […] After 3 days, the number of colonies was counted. […] Similar experiment was carried out with Sclerotium rolfsii as the phytopathogen fungus. The experiment was performed as above with the following modifications: 50 sclerotia of S. rolfsii were inserted into paper tea-bags and warped with nylon tights. Each bucket contained 9 tea-bags, 3 for each depth of 10, 20, and 30 cm. After burying the tea bags, the soil was watered with 10 L of tap water. […] Hyphal growth was detected after 2 days incubation at 25° C.

CCCCC/C=C/C=O [trans-2-octenal]
MFC (B. cinerea): 50 µg/mL
viability of S. rolfsii sclerotia (sclerotia of S. rolfsii; 30 and 50 cm depth): No elimination
viability of S. rolfsii sclerotia (sclerotia of S. rolfsii; depth 10 cm, open plot): elimination
concentration at which phytotoxic effect was displayed (tomato strain Ikram): 800 ppm
nematocidal activity in words [1]: relatively less potent nematicide
viability of sclerotia ([2]; depth 10 cm, open and close conditions, 125-250 ppm): reduced significantly
effect on viability of sclerotia ([2]; depth 30 cm, close conditions only, 250 ppm): significant effect
